Assay results: ChEMBL document CHEMBL3585339, “Synthesis, biological activities and pharmacokinetic properties of new fluorinated derivatives of selective PDE4D inhibitors” (Bioorg Med Chem, 2015)
The source made the active and inactive calls. No cut-off for these calls is given here.

Experiments:
[1] = target: T1, 3',5'-cyclic-AMP phosphodiesterase 4D (Homo sapiens, UniProt Q08499); test: Inhibition of human recombinant PDE4D3 expressed in baculoviral system using cAMP as substrate at 10 uM by fluorescence polarization assay relative to control
[2] = target: T1, 3',5'-cyclic-AMP phosphodiesterase 4D; test: Inhibition of human recombinant PDE4D3 expressed in baculoviral system using cAMP as substrate by fluorescence polarization assay
[3] = target: 3',5'-cyclic-AMP phosphodiesterase 4A (Homo sapiens) (UniProt P27815); test: Inhibition of human recombinant PDE4A4 expressed in baculoviral system using cAMP as substrate at 10 uM by fluorescence polarization assay relative to control
[4] = target: 3',5'-cyclic-AMP phosphodiesterase 4B (Homo sapiens) (UniProt Q07343); test: Inhibition of human recombinant PDE4B2 expressed in baculoviral system using cAMP as substrate at 10 uM by fluorescence polarization assay relative to control
[5] = Cytotoxicity against human HTLA-230 cells at 100 uM after 24 hrs by lactate dehydrogenase release assay (reference value: 0.67 +/- 0.24%); type: cell-based; conditions: htla-230, 24 h
[6] = Genotoxicity in human HTLA-230 cells assessed as gamma-H2AX production at 100 uM after 24 hrs by Western blot analysis; type: toxicity, cell-based; conditions: htla-230, 24 h
[7] = target: T1, 3',5'-cyclic-AMP phosphodiesterase 4D; test: Inhibition of PDE4D in human HTLA-230 cells assessed as increase in forskolin-induced cAMP accumulation at 100 uM pretreated for 10 mins followed by forskolin induction measured after 20 mins by enzyme immunoassay; type: cell-based
[8] = Effect on cAMP level in human HTLA-230 cells at 100 uM after 10 mins by enzyme immunoassay; type: ADME, cell-based; conditions: htla-230, 10 min
Mus musculus [9] = test: Toxicity in mouse assessed as sedative effect by measuring reduction of total distance traveled at 10 mg/kg, po measured over 60 mins by open-field test; type: organism-based; conditions: in vivo, 1 h
Mus musculus [10] = test: Toxicity in mouse assessed as sedative effect by measuring prolongation of immobility time at 10 mg/kg, po measured over 60 mins by open-field test; type: organism-based; conditions: in vivo, 1 h
[11] = Tmax in BALB/c mouse plasma at 10 mg/kg, sc by LC-MS/MS analysis; type: ADME, organism-based
[12] = Cmax in BALB/c mouse plasma at 10 mg/kg, sc by LC-MS/MS analysis; type: ADME, organism-based; set-up: dose 10 mg/kg, route subcutaneous
[13] = Elimination half life in BALB/c mouse plasma at 10 mg/kg, sc by LC-MS/MS analysis; type: ADME, organism-based; conditions: read-out: beta t1/2 (converted)
[14] = AUC (0 to t) in BALB/c mouse plasma at 10 mg/kg, sc by LC-MS/MS analysis; type: ADME, organism-based
[15] = Tmax in BALB/c mouse brain at 10 mg/kg, sc by LC-MS/MS analysis; type: ADME, organism-based
[16] = Cmax in BALB/c mouse brain at 10 mg/kg, sc by LC-MS/MS analysis; type: ADME, organism-based; set-up: dose 10 mg/kg, route subcutaneous
[17] = Elimination half life in BALB/c mouse brain at 10 mg/kg, sc by LC-MS/MS analysis; type: ADME, organism-based; conditions: read-out: beta t1/2 (converted)
Brain = test: AUC (0 to t) in BALB/c mouse brain at 10 mg/kg, sc by LC-MS/MS analysis; type: ADME, organism-based; conditions: in vivo
[18] = Ratio of AUC (0 to t) in BALB/c mouse brain to AUC (0 to t) in BALB/c mouse plasma at 10 mg/kg, sc by LC-MS/MS analysis; type: ADME, organism-based; conditions: read-out: Ratio AUC
[19] = Plasma concentration in BALB/c mouse at 10 mg/kg, sc measured at 0.17 hrs by LC-MS/MS analysis; type: ADME, organism-based
[20] = Plasma concentration in BALB/c mouse at 10 mg/kg, sc measured at 0.33 hrs by LC-MS/MS analysis; type: ADME, organism-based
[21] = Plasma concentration in BALB/c mouse at 10 mg/kg, sc measured at 0.67 hrs by LC-MS/MS analysis; type: ADME, organism-based
[22] = Plasma concentration in BALB/c mouse at 10 mg/kg, sc measured at 1 hr by LC-MS/MS analysis; type: ADME, organism-based
[23] = Plasma concentration in BALB/c mouse at 10 mg/kg, sc measured at 2 hrs by LC-MS/MS analysis; type: ADME, organism-based
[24] = Plasma concentration in BALB/c mouse at 10 mg/kg, sc measured at 3 hrs by LC-MS/MS analysis; type: ADME, organism-based
[25] = Plasma concentration in BALB/c mouse at 10 mg/kg, sc measured at 5 hrs by LC-MS/MS analysis; type: ADME, organism-based
[26] = Drug uptake in BALB/c mouse brain at 10 mg/kg, sc measured at 0.17 hrs by LC-MS/MS analysis; type: ADME, organism-based; conditions: read-out: Drug uptake
[27] = Drug uptake in BALB/c mouse brain at 10 mg/kg, sc measured at 0.33 hrs by LC-MS/MS analysis; type: ADME, organism-based; conditions: read-out: Drug uptake
[28] = Drug uptake in BALB/c mouse brain at 10 mg/kg, sc measured at 0.67 hrs by LC-MS/MS analysis; type: ADME, organism-based; conditions: read-out: Drug uptake
[29] = Drug uptake in BALB/c mouse brain at 10 mg/kg, sc measured at 1 hr by LC-MS/MS analysis; type: ADME, organism-based; conditions: read-out: Drug uptake
[30] = Drug uptake in BALB/c mouse brain at 10 mg/kg, sc measured at 2 hrs by LC-MS/MS analysis; type: ADME, organism-based; conditions: read-out: Drug uptake
[31] = Drug uptake in BALB/c mouse brain at 10 mg/kg, sc measured at 3 hrs by LC-MS/MS analysis; type: ADME, organism-based; conditions: read-out: Drug uptake
[32] = Drug uptake in BALB/c mouse brain at 10 mg/kg, sc measured at 5 hrs by LC-MS/MS analysis; type: ADME, organism-based; conditions: read-out: Drug uptake
[33] = Cytotoxicity against human HTLA-230 cells at 10 uM after 24 hrs by lactate dehydrogenase release assay (reference value: 0.67 +/- 0.24%); type: cell-based; conditions: htla-230, 24 h

Chain of 3',5'-cyclic-AMP phosphodiesterase 4A (Homo sapiens) (P27815 whole entry): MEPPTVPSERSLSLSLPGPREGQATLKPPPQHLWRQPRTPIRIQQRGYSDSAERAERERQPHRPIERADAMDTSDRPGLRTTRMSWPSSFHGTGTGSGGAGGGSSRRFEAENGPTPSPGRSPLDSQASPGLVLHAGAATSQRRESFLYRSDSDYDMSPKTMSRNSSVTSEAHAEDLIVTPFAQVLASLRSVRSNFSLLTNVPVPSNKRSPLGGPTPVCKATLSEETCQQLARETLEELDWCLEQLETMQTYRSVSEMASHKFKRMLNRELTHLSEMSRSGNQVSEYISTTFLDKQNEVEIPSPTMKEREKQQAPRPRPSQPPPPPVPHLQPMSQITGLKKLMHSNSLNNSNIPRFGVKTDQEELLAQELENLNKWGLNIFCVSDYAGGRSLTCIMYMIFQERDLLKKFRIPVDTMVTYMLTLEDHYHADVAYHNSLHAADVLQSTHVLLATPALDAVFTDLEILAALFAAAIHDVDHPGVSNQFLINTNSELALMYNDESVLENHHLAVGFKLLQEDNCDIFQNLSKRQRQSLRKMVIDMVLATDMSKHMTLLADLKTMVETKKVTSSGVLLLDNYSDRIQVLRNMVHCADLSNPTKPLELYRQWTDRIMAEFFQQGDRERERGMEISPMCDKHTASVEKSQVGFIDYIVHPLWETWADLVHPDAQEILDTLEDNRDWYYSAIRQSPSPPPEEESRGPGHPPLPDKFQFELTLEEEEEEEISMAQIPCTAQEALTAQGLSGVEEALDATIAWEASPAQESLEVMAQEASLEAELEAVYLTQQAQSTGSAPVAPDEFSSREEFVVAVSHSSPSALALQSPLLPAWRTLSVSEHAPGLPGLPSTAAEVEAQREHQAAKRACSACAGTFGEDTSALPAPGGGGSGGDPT
Chain of 3',5'-cyclic-AMP phosphodiesterase 4B (Homo sapiens) (Q07343 whole entry): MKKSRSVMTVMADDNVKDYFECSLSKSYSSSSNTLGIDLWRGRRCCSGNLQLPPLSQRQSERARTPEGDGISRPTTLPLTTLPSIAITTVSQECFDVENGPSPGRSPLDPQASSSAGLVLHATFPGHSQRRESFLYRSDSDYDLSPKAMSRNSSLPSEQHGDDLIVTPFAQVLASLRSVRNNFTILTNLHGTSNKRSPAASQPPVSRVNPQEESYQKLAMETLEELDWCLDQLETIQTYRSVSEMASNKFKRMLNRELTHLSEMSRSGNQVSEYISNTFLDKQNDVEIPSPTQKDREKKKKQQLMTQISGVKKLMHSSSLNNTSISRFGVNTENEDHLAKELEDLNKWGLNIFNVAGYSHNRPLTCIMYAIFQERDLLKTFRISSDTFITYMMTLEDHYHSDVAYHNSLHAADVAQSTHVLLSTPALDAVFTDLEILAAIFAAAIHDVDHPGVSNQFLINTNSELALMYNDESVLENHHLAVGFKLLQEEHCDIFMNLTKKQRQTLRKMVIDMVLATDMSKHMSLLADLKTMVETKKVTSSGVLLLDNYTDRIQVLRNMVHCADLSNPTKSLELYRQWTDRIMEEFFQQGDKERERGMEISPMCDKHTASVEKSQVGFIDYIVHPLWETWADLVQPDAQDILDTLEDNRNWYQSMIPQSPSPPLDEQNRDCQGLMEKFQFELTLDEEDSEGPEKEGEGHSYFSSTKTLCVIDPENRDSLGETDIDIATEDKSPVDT
T1 sequence (Q08499 whole entry): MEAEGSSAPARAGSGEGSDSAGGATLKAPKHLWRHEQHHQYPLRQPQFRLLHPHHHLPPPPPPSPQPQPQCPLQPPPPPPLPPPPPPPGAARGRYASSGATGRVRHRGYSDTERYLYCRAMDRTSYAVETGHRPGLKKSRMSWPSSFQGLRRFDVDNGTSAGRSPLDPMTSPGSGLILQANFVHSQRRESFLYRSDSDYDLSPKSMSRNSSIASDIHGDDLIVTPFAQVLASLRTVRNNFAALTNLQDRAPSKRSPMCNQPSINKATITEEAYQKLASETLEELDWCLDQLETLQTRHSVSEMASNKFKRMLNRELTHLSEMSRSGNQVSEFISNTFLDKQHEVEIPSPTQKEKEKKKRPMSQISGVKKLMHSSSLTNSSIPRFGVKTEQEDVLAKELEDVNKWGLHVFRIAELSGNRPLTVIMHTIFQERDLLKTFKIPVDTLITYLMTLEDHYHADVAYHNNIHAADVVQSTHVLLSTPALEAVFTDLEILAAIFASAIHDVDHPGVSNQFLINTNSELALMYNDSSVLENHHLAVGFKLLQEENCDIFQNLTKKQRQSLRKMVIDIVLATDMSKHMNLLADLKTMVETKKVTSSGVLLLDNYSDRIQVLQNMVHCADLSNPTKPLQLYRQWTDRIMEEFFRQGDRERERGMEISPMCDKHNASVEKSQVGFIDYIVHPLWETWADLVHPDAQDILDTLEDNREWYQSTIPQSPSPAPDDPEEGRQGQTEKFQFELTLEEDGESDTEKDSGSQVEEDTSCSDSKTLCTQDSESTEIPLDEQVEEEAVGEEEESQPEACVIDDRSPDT

CC1CN(C(=O)CO/N=C/c2ccc(OC(F)F)c(OC3CCCC3)c2)CC(C)O1 (stereo not given)
inhibition [1]: 74%
IC50 [2]: 4.84 µM
inhibition [3]: 32%
inhibition [4]: 29%
Activity [5]: 0.01%
Activity [6]: Non-toxic
inhibition [7]: Active
Activity [8]: Non-toxic
Activity (Mus musculus [9]): Non-toxic
Activity (Mus musculus [10]): Non-toxic
Tmax [11]: 10.2 min
Cmax [12]: 4410 ng/mL
half-life [13]: 42 min
AUC(0-t) [14]: 1220 ng·h/mL
Tmax [15]: 10.2 min
Cmax [16]: 1570 ng/g
half-life [17]: 81.6 min
AUCt (Brain): 391 ng·h/g
Kp [18]: 0.429
concentration at 0.17 h [19]: 2160 ng/mL
concentration at 0.33 h [20]: 1740 ng/mL
concentration at 0.67 h [21]: 1090 ng/mL
concentration at 1 h [22]: 657 ng/mL
concentration at 2 h [23]: 217 ng/mL
concentration at 3 h [24]: 11.6 ng/mL
concentration at 5 h [25]: 67.2 ng/mL
concentration at 0.17 h [26]: 936 ng/g
concentration at 0.33 h [27]: 790 ng/g
concentration at 0.67 h [28]: 453 ng/g
concentration at 1 h [29]: 303 ng/g
concentration at 2 h [30]: 96 ng/g
concentration at 3 h [31]: 5.45 ng/g
concentration at 5 h [32]: 2.94 ng/g

COc1ccc(C2CNC(=O)C2)cc1OC1CCCC1 (stereo not given) [ROLIPRAM]
Activity (Mus musculus [9]): Toxic
Activity (Mus musculus [10]): Toxic

CC1CN(NCC(O)CO/N=C/c2ccc(OC(F)F)c(OC3CCCC3)c2)CC(C)O1 (stereo not given)
inhibition [1]: 87%
IC50 [2]: 0.19 µM
inhibition [3]: 58%
inhibition [4]: 51%
Activity [5]: 1.54%

O=C(CO/N=C/c1ccc(OC(F)F)c(OC2CCCC2)c1)N1CCOCC1
inhibition [1]: 63%
IC50 [2]: 1.12 µM
inhibition [3]: 36%
inhibition [4]: 31%
Activity [5]: 2.06%

O=C(CO/N=C/c1ccc(OC(F)F)c(OC2CCCC2)c1)N1CCC(O)CC1
inhibition [1]: 60%
IC50 [2]: 2.63 µM
inhibition [3]: 28%
inhibition [4]: 26%
Activity [5]: 4.62%
Activity [33]: 0.01%

OC1CCN(CC(O)CO/N=C/c2ccc(OC(F)F)c(OC3CCCC3)c2)CC1 (stereo not given)
inhibition [1]: 51%
IC50 [2]: 2.54 µM
inhibition [3]: 15%
inhibition [4]: 15%
Activity [5]: 31.37%
Activity [33]: 3.42%

COc1ccc(/C=N/OCC(=O)N2CC(C)OC(C)C2)cc1OC1CCCC1 (stereo not given)
Activity [5]: 0.14%
Activity [6]: Non-toxic
inhibition [7]: Active
Activity [8]: Non-toxic
Activity (Mus musculus [9]): Non-toxic
Activity (Mus musculus [10]): Non-toxic
Tmax [11]: 10.2 min
Cmax [12]: 2160 ng/mL
half-life [13]: 49.2 min
AUC(0-t) [14]: 1890 ng·h/mL
Tmax [15]: 10.2 min
Cmax [16]: 936 ng/g
half-life [17]: 32.4 min
AUCt (Brain): 812 ng·h/g
Kp [18]: 0.358
concentration at 0.17 h [19]: 4410 ng/mL
concentration at 0.33 h [20]: 1310 ng/mL
concentration at 0.67 h [21]: 343 ng/mL
concentration at 1 h [22]: 32.8 ng/mL
concentration at 2 h [23]: 20 ng/mL
concentration at 3 h [24]: 2.18 ng/mL
concentration at 5 h [25]: 10.4 ng/mL
concentration at 0.17 h [26]: 1570 ng/g
concentration at 0.33 h [27]: 396 ng/g
concentration at 0.67 h [28]: 84.2 ng/g
concentration at 1 h [29]: 3.29 ng/g
concentration at 2 h [30]: 2.21 ng/g
concentration at 3 h [31]: 1.19 ng/g

CC1CN(CC(O)CO/N=C/c2ccc(OC(F)F)c(OC3CCCC3)c2)CC(C)O1 (stereo not given)
inhibition [1]: 84%
IC50 [2]: 0.19 µM
inhibition [3]: 68%
inhibition [4]: 68%
Activity [5]: 8.83%
Activity [33]: 0.01%
Activity (Mus musculus [9]): Toxic
Activity (Mus musculus [10]): Toxic

CN1C(=O)CN=C(c2ccccc2)c2cc(Cl)ccc21 [DIAZEPAM]
Activity (Mus musculus [9]): Toxic
Activity (Mus musculus [10]): Toxic

COc1cc([C@@H]2c3cc4c(cc3[C@@H](O[C@@H]3O[C@@H]5CO[C@@H](C)O[C@H]5[C@H](O)[C@H]3O)[C@H]3COC(=O)[C@H]23)OCO4)cc(OC)c1O [ETOPOSIDE]
Activity [6]: Toxic

COc1ccc(/C=N/OCC(O)CN2CC(C)OC(C)C2)cc1OC1CCCC1 (stereo not given)
Activity (Mus musculus [9]): Non-toxic
Activity (Mus musculus [10]): Non-toxic

CC1CN(C(=O)CCO/N=C/c2ccc(OC(F)F)c(OC3CCCC3)c2)CC(C)O1 (stereo not given)
inhibition [1]: 63%
IC50 [2]: 0.47 µM
inhibition [3]: 34%
inhibition [4]: 37%
Activity [5]: 0.01%
Activity [6]: Non-toxic

OC(CO/N=C/c1ccc(OC(F)F)c(OC2CCCC2)c1)CN1CCOCC1 (stereo not given)
inhibition [1]: 83%
IC50 [2]: 1.49 µM
inhibition [3]: 41%
inhibition [4]: 43%
Activity [5]: 0.21%
Activity [6]: Non-toxic
